Assay: Decrease of fragrance compound concentration during the indole inhibition test (GCMS)
Assay type: physicochemical
Parameters: key: Y = Yes
Conditions: 24 hours in fresh human urine, room temperature; for Decrease in Fragrance Compounds after 24 hours (%): 0-30%: category 0-30% decrease; for Decrease in Fragrance Compounds after 24 hours (%): >60%: category >60% decrease
Procedure: Advantageously, the appropriate fragrance compounds may be selected by using the following preferred indole inhibition test which comprises the following steps: • A) 0.02 g of fragrance and 0.02 g of Tergitol 15-s-12 was added to 7 g of fresh human urine in a 20 ml Headspace vial sealed with a PTFE faced septum and well mixed for 10 minutes using a magnetic stirrer. For a blank to test the suitability of a batch of fresh human urine, 7 g of human urine was used with 0.02 g of demineralised water and 0.02 g of Tergitol 15-s-12. If a control was required, to test the efficacy of product base for example, the control contained 7 g of human urine to which was added 0.02 g of fragrance, minus the active agents and 0.02 g of Tergitol 15-s-12. • B) The vials are placed in an autosampler tray at room temperature. • C) At different times the headspace in the vials is sampled for 5 minutes at 35° C. by an SPME fibre (PDMS fibre ex Supelco) after 10 minutes at 35° C. (incubation time). • D) The SPME fibre is desorbed 1 minute at 265° C. from a CTC Combipal autosampler and injected in splitless mode onto an Agilent GC-MS 5973N with a HP-INNOWAX column (30 m×0.25×0.25). (Oven conditions: 50° C. during 2 min-to 250° C. at 10° C./min-250° C. during 5 minutes). • E) Under the above GC-MS conditions, indole has a retention time of 19.14 minutes, and can be recognised by its characteristic ions (m/z 117, m/z 89 and m/z 90). • F) In the range of values determined in this work, the area of the indole peak (117) is linearly related to the actual concentration in the vial, and was used without further correction to establish the concentration of indole in “Active” and “Blank” and if present any “Control” fragrances. • G) The material is deemed to be active if the indole concentration in the test sample is below 0.01 ppm (wt/wt) after 24 hours incubation at room temperature and the indole in the blank samples is between 0.25 ppm (wt/wt) and 1.25 ppm (wt/wt) indole after 24 hours storage at room temperature. • H) The change in the active ingredient concentration is determined by comparing measurements at the start of the experiment and after 24 hours using appropriate characteristic ions.
This can be determined by measuring the fragrance concentration in the sample containing the test cocktail at the start and end of the indole inhibition test as described in step I of the test. If the difference between the measurements is less than 60% preferably less than 30% then the material is considered as not to have changed sufficiently to alter the fragrance note and to be particularly preferred.
A sample of fresh human urine is divided into equal portions and a fragrance containing one or more of the effective materials was added as described in the Indole Inhibition Test. […] The samples were stored and after 24 hours the indole content and fragrance active content is measured by gas chromatography with mass spectrometric (GCMS) detection. Those formulations containing active ingredients prevented the formation of indole while both the unfragranced and the alcohol containing control samples had much greater quantities of indole present. Also for the active compounds a GCMS measurement indicated the extent to which the compound was itself consumed as part of the process. In table 2 the decrease in fragrance components has been classified into 3 categories and the letter Y indicates the appropriate category for the compounds which have been measured. The absence of a letter Y in any category means that the decrease has not been measured for that compound.

| Structure (SMILES) | Decrease in Fragrance Compounds after 24 hours (%): 0-30% | further results |
| --- | --- | --- |
| C=C(C)C1CC=C(C=O)CC1 (stereo not shown) [Perilla aldehyde] | Y | – |
| CCc1occc(=O)c1O [Veltol Plus] | – | Decrease in Fragrance Compounds after 24 hours (%): >60%: Y |
| O=Cc1ccccc1 [Benzaldehyde] | Y | – |
| CCCCCCCCCCC=O [Aldehyde C11] | – | Decrease in Fragrance Compounds after 24 hours (%): >60%: Y |
| O=C/C=C/c1ccccc1 [Cinnamic aldehyde] | Y | – |
| CCC/C=C/C=O [Trans 2 hexenal] | – | Decrease in Fragrance Compounds after 24 hours (%): 0-60% (category 0-60% decrease): Y |
| CC(C)=CCCC(C)=CC=O [Citral] | Y | – |
